The results in this text go back to patent US7211572B2 (Japan Tobacco Inc., priority 2003, dated 2007).

Where a name gives a salt, the structure may show the parent alone. A value given as a limit tells only on which side of the number the result lay.

This assay has as its target T1, HIV integrase (Human immunodeficiency virus type 1 group M subtype B, UniProt P12497, F1332H).
T1 construct: HIV integrase full length gene; made in house; host or cells: Escherichia coli BL21(DE3), plasmid pET21a-INH
Description: Determination of enzyme (HIV integrase) inhibitory activity. Format: biochemical. To be noted: recombinant HIV integrase (F185H), strand transfer ELISA, absorbance at 450 nm. A digest of the protocol:
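Full-length integrase with F185H, expressed in E. coli and purified, was reacted for 60 min at 37 °C with compound and biotinylated donor DNA bound to streptavidin plates. Target DNA was added for 10 min, then anti-digoxigenin-peroxidase detection at A450; IC50 from % inhibition versus enzyme-free blank.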

For the compound `CC(C)(C)CC(=O)Nc1cn2c(c(O)c1=O)C(=O)N(Cc1ccc(F)c(Cl)c1)CC2` [Example 406, N-[2-(3-chloro-4-fluorobenzyl)-9-hydroxy-1,8-dioxo-1,3,4,8-tetrahydro-2H-pyrido[1,2-a]pyrazin-7-yl]-3,3-dimethylbutyramide], the IC50 (in general, the midpoint of a concentration-inhibition curve) fell in the range of 10 to 100 nM. As to `Cc1cn(Cc2cccc(F)c2)c(=O)c2c(O)c(=O)c(-c3ccccn3)cn12` [Example 407, 2-(3-fluorobenzyl)-9-hydroxy-4-methyl-7-(pyridin-2-yl)-2H-pyrido[1,2-a]pyrazine-1,8-dione hydrochloride], the IC50 lay in the range of 10 to 100 nM. Take `Cc1cn(Cc2ccc(F)cc2)c(=O)c2c(O)c(=O)c(C(=O)C(C)(C)C)cn12` [Example 408, 7-(2,2-dimethylpropionyl)-2-(4-fluorobenzyl)-9-hydroxy-4-methyl-2H-pyrido[1,2-a]pyrazine-1,8-dione hydrochloride]: the half-inhibitory concentration (IC50) lay within 10 to 100 nM.

Consider `COCc1c(C(=O)C(C)(C)C)c(=O)c(O)c2n1CCN(Cc1ccc(F)cc1)C2=O` [Example 409, 7-(2,2-dimethylpropionyl)-2-(4-fluorobenzyl)-9-hydroxy-6-methoxymethyl-3,4-dihydro-2H-pyrido[1,2-a]pyrazine-1,8-dione hydrochloride], for which the half-inhibitory concentration (IC50) was in the range of 10 to 100 nM. With `O=C(NCc1ccccn1)c1cn2c(c(O)c1=O)C(=O)N(Cc1ccc(F)cc1)CC2` [Example 410, N-(pyridin-2-ylmethyl)-2-(4-fluorobenzyl)-9-hydroxy-1,8-dioxo-1,3,4,8-tetrahydro-2H-pyrido[1,2-a]pyrazine-7-carboxamide hydrochloride], the IC50 was in the range of 10 to 100 nM. As for `O=C(NCc1ccco1)c1cn2c(c(O)c1=O)C(=O)N(Cc1ccc(F)cc1)CC2` [Example 411, N-(furan-2-ylmethyl)-2-(4-fluorobenzyl)-9-hydroxy-1,8-dioxo-1,3,4,8-tetrahydro-2H-pyrido[1,2-a]pyrazine-7-carboxamide hydrochloride], the IC50 was in the range of 10 to 100 nM. On to `CC(C)(C)C(=O)c1cn2c(c(O)c1=O)C(=O)N(Cc1ccc(F)cc1)CC2(C)C` [Example 412, 7-(2,2-dimethylpropionyl)-2-(4-fluorobenzyl)-9-hydroxy-4,4-dimethyl-3,4-dihydro-2H-pyrido[1,2-a]pyrazine-1,8-dione hydrochloride], for which the IC50 lay within 10 to 100 nM.

Regarding `CC1(C)CN(Cc2ccc(F)cc2)C(=O)c2c(O)c(=O)c(Br)cn21` [Example 413, 7-bromo-2-(4-fluorobenzyl)-9-hydroxy-4,4-dimethyl-3,4-dihydro-2H-pyrido[1,2-a]pyrazine-1,8-dione hydrochloride], the IC50 was in the range of 100 to 1000 nM. `CC1(C)CN(Cc2ccc(F)cc2)C(=O)c2c(O)c(=O)c(-c3ccccn3)cn21` [Example 414, 2-(4-fluorobenzyl)-9-hydroxy-4,47dimethyl-7-(pyridin-2-yl)-3,4-dihydro-2H-pyrido[1,2-a]pyrazine-1,8-dione hydrochloride]: the IC50 lay in the range of 100 to 1000 nM. In the case of `CN(C)c1ccc(CNC(=O)c2cn3c(c(O)c2=O)C(=O)N(Cc2ccc(F)cc2)CC3)cc1` [Example 415, N-(4-dimethylaminobenzyl)-2-(4-fluorobenzyl)-9-hydroxy.-1,8-dioxo-1,3,4,8-tetrahydro-2H-pyrido[1,2-a]pyrazine-7-carboxamide hydrochloride], the IC50 fell in the range of 10 to 100 nM. The figure for `O=C1c2c(O)c(=O)c(-c3cnccn3)cn2CCN1Cc1cccc(Cl)c1` [Example 416, 2-(3-chlorobenzyl)-9-hydroxy-7-(pyrazin-2-yl)-3,4-dihydro-2H-pyrido[1,2-a]pyrazine-1,8-dione hydrochloride] is 10 to 100 nM. In the case of `O=C1c2c(O)c(=O)c(-c3cnccn3)cn2CCN1Cc1ccc(F)cc1` [Example 417, 2-(4-fluorobenzyl)-9-hydroxy-7-(pyrazin-2-yl)-3,4-dihydro-2H-pyrido[1,2-a]pyrazine-1,8-dione hydrochloride], the IC50 was in the range of 10 to 100 nM.

Regarding `O=C1c2c(O)c(=O)c(NS(=O)(=O)c3ccccc3)cn2CCN1Cc1ccc(F)c(Cl)c1` [Example 418, N-[2-(3-chloro-4-fluorobenzyl)-9-hydroxy-1,8-dioxo-1,3,4,8-tetrahydro-2H-pyrido[1,2-a]pyrazin-7-yl]benzenesulfonamide], the IC50 lay within 10 to 100 nM.

Consider `O=C1c2c(O)c(=O)c(NS(=O)(=O)Cc3ccccc3)cn2CCN1Cc1ccc(F)c(Cl)c1` [Example 419, N-[2-(3-chloro-4-fluorobenzyl)-9-hydroxy-1,8-dioxo-1,3,4,8-tetrahydro-2H-pyrido[1,2-a]pyrazin-7-yl]benzylsulfonamide], for which the IC50 was below 10 nM. As for `O=C1c2c(O)c(=O)c(NS(=O)(=O)c3cccs3)cn2CCN1Cc1ccc(F)c(Cl)c1` [Example 420, N-[2-(3-chloro-4-fluorobenzyl)-9-hydroxy-1,8-dioxo-1,3,4,8-tetrahydro-2H-pyrido[1,2-a]pyrazin-7-yl]-2-thiophenesulfonamide], the IC50 is 10 to 100 nM. As to `CS(=O)(=O)c1ccc(CNC(=O)c2cn3c(c(O)c2=O)C(=O)N(Cc2ccc(F)cc2)CC3)cc1` [Example 421, N-(4-methanesulfonylbenzyl)-2-(4-fluorobenzyl)-9-hydroxy-1,8-dioxo-1,3,4,8-tetrahydro-2H-pyrido[1,2-a]pyrazine-7-carboxamide hydrochloride], the IC50 lay within 10 to 100 nM. Regarding `CC(C)(C)C(O)Cc1cc(=O)c(O)c2n1CCN(Cc1ccc(F)cc1)C2=O` (stereo not drawn) [Example 422, 2-(4-fluorobenzyl)-9-hydroxy-6-(2-hydroxy-3,3-dimethylbutyl)-3,4-dihydro-2H-pyrido[1,2-a]pyrazine-1,8-dione hydrochloride], the IC50 was in the range of 10 to 100 nM. Regarding `CC(=O)Nc1cn2c(C)cn(Cc3cccc(Cl)c3)c(=O)c2c(O)c1=O` [Example 423, N-[2-(3-chlorobenzyl)-9-hydroxy-4-methyl-1,8-dioxo-1,8-dihydro-2H-pyrido[1,2-a]pyrazin-7-yl]acetamide], the IC50 lay within 10 to 100 nM. With `COCc1c(-c2ccccn2)c(=O)c(O)c2n1CCN(Cc1ccc(F)cc1)C2=O` [Example 424, 2-(4-fluorobenzyl)-9-hydroxy-6-methoxymethyl-7-(pyridin-2-yl)-3,4-dihydro-2H-pyrido[1,2-a]pyrazine-1,8-dione hydrochloride] the figure was 10 to 100 nM; with `COCC(C)(C)C(=O)c1cn2ccn(Cc3ccc(F)cc3)c(=O)c2c(O)c1=O` [Example 425, 2-(4-fluorobenzyl)-9-hydroxy-7-(3-methoxy-2,2-dimethylpropionyl)-2H-pyrido[1,2-a]pyrazine-1,8-dione hydrochloride], below 10 nM; with `COc1ccnc(CNC(=O)c2cn3c(c(O)c2=O)C(=O)N(Cc2ccc(F)cc2)CC3)n1` [Example 426, N-(4-methoxypyrimidin-2-ylmethyl)-2-(4-fluorobenzyl)-9-hydroxy-1,8-dioxo-1,3,4,8-tetrahydro-2H-pyrido[1,2-a]pyrazine-7-carboxamide hydrochloride], 10 to 100 nM. Turning to `CC(C)(C)C(=O)Cc1c(C(=O)C(C)(C)C)c(=O)c(O)c2n1CCN(Cc1ccc(F)cc1)C2=O` [Example 427, 6-(3,3-dimethyl-2-oxobutyl)-7-(2,2-dimethylpropionyl)-2-(4-fluorobenzyl)-9-hydroxy-3,4-dihydro-2H-pyrido [1,2-a]pyrazine-1,8-dione hydrochloride], the IC50 lay in the range of 10 to 100 nM. Regarding `CC(=O)Nc1ccc(CNC(=O)c2cn3c(c(O)c2=O)C(=O)N(Cc2ccc(F)cc2)CC3)cc1` [Example 428, N-(4-acetylaminobenzyl)-2-(4-fluorobenzyl)-9-hydroxy-1,8-dioxo-1,3,4,8-tetrahydro-2H-pyrido[1,2-a]pyrazine-7-carboxamide], the IC50 was in the range of 10 to 100 nM. Consider `O=c1ccn2c(CCO)cn(Cc3ccc(Cl)c(Cl)c3)c(=O)c2c1O` [Example 429, 2-(3,4-dichlorobenzyl)-9-hydroxy-4-(2-hydroxyethyl)-2H-pyrido[1,2-a]pyrazine-1,8-dione hydrochloride], for which the IC50 was in the range of 10 to 100 nM. With `CCC(O)c1cn(Cc2ccc(Cl)c(Cl)c2)c(=O)c2c(O)c(=O)ccn12` (stereo not drawn) [Example 430, 2-(3,4-dichlorobenzyl)-9-hydroxy-4-(1-hydroxypropyl)-2H-pyrido[1,2-a]pyrazine-1,8-dione] the figure was 10 to 100 nM; with `O=c1ccn2c(CCCO)cn(Cc3ccc(Cl)c(Cl)c3)c(=O)c2c1O` [Example 431, 2-(3,4-dichlorobenzyl)-9-hydroxy-4-(3-hydroxypropyl)-2H-pyrido[1,2-a]pyrazine-1,8-dione], 10 to 100 nM.

Regarding `CC(C)C(O)c1cn(Cc2ccc(Cl)c(Cl)c2)c(=O)c2c(O)c(=O)ccn12` (stereo not drawn) [Example 432, 2-(3,4-dichlorobenzyl)-9-hydroxy-4-(1-hydroxy-2-methylpropyl)-2H-pyrido[1,2-a]pyrazine-1,8-dione], the IC50 is below 10 nM.
